According to US20260018245A1, “SYSTEMS AND METHODS FOR IDENTIFYING AND TARGETING COLLATERAL LETHAL GENES” (The Regents of the University of Michigan, priority 2022, published 2026):

Legend:
[1] = system: SKOV3 cells expressing shScramble or shUQCR11; assay: Viability of isogenic SKOV3 lines expressing shScramble or shUQCR11 treated with MTHFD2 inhibitor; assay type: cell-based; details: SKOV3 cells with UQCR11 knocked down vs shScramble
Text: FIG. 2 Multi-objective metabolic flux analysis identifies MTHFD2 as a collateral lethal target in UQCR11-null ovarian cancers with in vitro, clinical and pan-cancer implications. a, Workflow elucidating multi-objective flux analysis algorithm comparing flux distributions of cancers with and without deletions for identification of collateral lethal pathways. b, Multi-objective metabolic Pareto frontier and metabolic fluxes of MTHFD1, MTHFD2, RNA and DNA syntheses in UQCR11-null and -intact models. Radar plots represent Pareto-optimal flux distributions from maximal biomass to maximal ATP maintenance (counterclockwise). c, mRNA expression of UQCR11 and MTHFD2 in parental ovarian cancer cell lines. Data presented as mean±s.d. (n=6), analysed using two-tailed Student's t-test. d, Protein expression of MTHFD2 and UQCR11. Representative immunoblots with β-actin as loading control. e, Cell viability after dox-induced shMTHFD2 knockdown. […] (n=3), analysed using two-way analysis of variance (ANOVA) with Dunn's correction. f, Viability of parental ovarian cancer lines treated with MTHFD2 inhibitor. […] Data analysed pairwise by log-rank test. k, Overall survival of patients with UCEC and low UQCR11 (bottom quartile) expression and high (top quartile) expression of MTHFD2 compared with patients with low UQCR11 and MTHFD2 (bottom quartile) expression. Data analysed by log-rank test. […]

[2] = system: isogenic SKOV3 cells (shScramble, shUQCR11); assay: Nucleotide profiling after MTHFD2 inhibitor vs vehicle; assay type: cell-based
Text: FIG. 14 Analysis of global metabolomics and nucleotide pathways of ovarian cancer lines with and without UQCR11 deletion. (a) Pathway enrichment analysis using metabolic pathways in the KEGG database comparing UQCR11-intact and -null ovarian cancer lines from the CCLE panel (n=50). Pathway coverage represents fraction of metabolites in the KEGG pathway that have available data. Data analyzed using weighted z-test for pathway analysis built into MetaboAnalyst 5.0. (b) Pathway enrichment analysis on all metabolite concentrations measured in SKOV3 (UQCR11-intact) and OVCAR8, HeyA8 and CAOV3 (UQCR11-null) cells for metabolites involved in nucleotide metabolism. Pathway coverage, that is, percentage of metabolites measured from each pathway are represented by a gradient color-scale. […] Data analyzed using weighted z-test for pathway analysis built into MetaboAnalyst 5.0. […] Data are combined from two independent experiments and analyzed using two-sample t-tests corrected for multiple hypothesis testing, built into MetaboAnalyst 5.0. […] (d) Metabolites involved in pyrimidine synthesis and salvage are measured in SKOV3 (UQCR11-intact) and OVCAR8, HeyA8 and CAOV3 (UQCR11-null) cells and overlaid onto the pyrimidine metabolic pathway map. […] Data are combined from two independent experiments and analyzed using two-sample t-tests corrected for multiple hypothesis testing, built into MetaboAnalyst 5.0 (n=6). […]

Cc1c(N2CCN(C)[C@@H](C)C2)ccc2c3c(c(=O)oc12)CN(C(=O)c1ccc(NS(C)(=O)=O)c(OC(F)(F)F)c1)CC3 [DS18561882] was tested, and the GISO concentrations [1] was “significantly reduced” and the “differentially abundant metabolites (nucleotides)” value [2] was “three out of 49”.
